≈ marks a conversion by molar mass, not a printed value. Like-named read-outs stand apart in the source and are kept apart here.
Columns and labels:
[1] = Solubility in distilled water
Protocol: The remaining salts (3e-h) were prepared directly from the free acid 10b by treatment with the appropriate base or amino acid. The solubilities of each salt and of precursor 9 were measured in distilled water at room temperature.

[2] = tested on: murine P388 lymphocytic leukemia cell line; assay: Murine P388 lymphocytic leukemia cell line growth inhibition; type: cell-based; details: for Activity against P388 (in words): murine P388 lymphocytic leukemia cell line
[3] = tested on: lung (NCI-H460); assay: Human cancer cell line minipanel: NCI-H460; type: cell-based; details: for GI50: read-out: GI50 NCI-H460 (nanomolar value in parentheses)
[4] = tested on: colon (KM20L2); assay: Human cancer cell line minipanel: KM20L2; type: cell-based; details: for GI50: read-out: GI50 KM20L2 (nanomolar value in parentheses)
[5] = tested on: prostate (DU-145); assay: Human cancer cell line minipanel: DU-145; type: cell-based; details: for GI50: read-out: GI50 DU-145 (nanomolar value in parentheses)
[6] = tested on: pancreas (BXPC-3); assay: Human cancer cell line minipanel: BXPC-3; type: cell-based; details: for GI50: read-out: GI50 BXPC-3 (nanomolar value in parentheses)
[7] = tested on: breast (MCF-7); assay: Human cancer cell line minipanel: MCF-7; type: cell-based; details: for GI50: read-out: GI50 MCF-7 (nanomolar value in parentheses)
[8] = tested on: CNS (SF-268); assay: Human cancer cell line minipanel: SF-268; type: cell-based; details: for GI50: read-out: GI50 SF-268 (nanomolar value in parentheses)
[9] = tested on: minipanel of human cancer cell lines; assay: Minipanel of human cancer cell lines (summary); type: cell-based; details: for GI50 (order of magnitude over the cell lines): summary of cancer cell growth inhibition
[10] = Storage stability of the free phosphoric acid; type: physicochemical; details: storable for short periods as methanolic solution (<0.01 M at 4° C.)
From the text: The most soluble were the sodium (3b) and potassium (3c) salts (Table 2).

[11] = murine lymphocytic leukemia (P388)
[12] = murine lymphocytic leukemia (P388), read-out: ED50 P388 (nanomolar value in parentheses)

With CC[C@H](C)[C@@H]([C@@H](CC(=O)N1CCC[C@H]1[C@H](OC)[C@@H](C)C(=O)NCCc1ccc(OP(=O)([O-])[O-])cc1)OC)N(C)C(=O)[C@@H](NC(=O)[C@H](C(C)C)N(C)C)C(C)C.[Li+].[Li+] [Compound 3a, Lithium Auristatin TP] the Solubility ([1]; in distilled water at 23° C.) was greater than 65 mg/mL.

For CC[C@H](C)[C@@H]([C@@H](CC(=O)N1CCC[C@H]1[C@H](OC)[C@@H](C)C(=O)NCCc1ccc(OP(=O)([O-])[O-])cc1)OC)N(C)C(=O)[C@@H](NC(=O)[C@H](C(C)C)N(C)C)C(C)C.[K+].[K+] [Compound 3c, Potassium Auristatin TP], the Solubility ([1]; in distilled water at 23° C.) was greater than 120 mg/mL, the “Activity against P388 (in words)” value [2] was “exceptional activity” and the “ED50 P388” value [2, 11] was 7.6 ng/mL. For the same compound, the EC50 [2, 12] was 8.7 nM.

In the case of C1COCCN1.CC[C@H](C)[C@@H]([C@@H](CC(=O)N1CCC[C@H]1[C@H](OC)[C@@H](C)C(=O)NCCc1ccc(OP(=O)(O)O)cc1)OC)N(C)C(=O)[C@@H](NC(=O)[C@H](C(C)C)N(C)C)C(C)C [Compound 3d, Morpholine Auristatin TP], the Solubility ([1]; in distilled water at 23° C.) is reported as greater than 72 mg/mL.

In the case of CC[C@H](C)[C@@H]([C@@H](CC(=O)N1CCC[C@H]1[C@H](OC)[C@@H](C)C(=O)NCCc1ccc(OP(=O)(O)O)cc1)OC)N(C)C(=O)[C@@H](NC(=O)[C@H](C(C)C)N(C)C)C(C)C.NC(CO)(CO)CO [Compound 3f, TRIS Auristatin TP], the Solubility ([1]; in distilled water at 23° C.) is reported as greater than 51 mg/mL.

For CC[C@H](C)[C@@H]([C@@H](CC(=O)N1CCC[C@H]1[C@H](OC)[C@@H](C)C(=O)Nc1ccc2ncccc2c1)OC)N(C)C(=O)[C@@H](NC(=O)[C@H](C(C)C)N(C)C)C(C)C [Compound 5, Dov-Val-Dil-Dap-6-aminoquinoline], the “Activity against P388 (in words)” value [2] was “exceptional activity”, the “ED50 P388” value [2, 11] was 2.6 ng/mL (≈ 0.00359 µM) and the EC50 [2, 12] was 3.59 nM. For the same compound, the “GI50 NCI-H460” value [3] was 0.36 ng/mL (≈ 0.000497 µM), the GI50 [3] was 0.5 nM and the “GI50 KM20L2” value [4] was 0.25 ng/mL (≈ 0.000345 µM). For the same compound, the GI50 [4] was 0.35 nM, the “GI50 DU-145” value [5] was 0.3 ng/mL (≈ 0.000414 µM) and the GI50 [5] was 0.41 nM. For the same compound, the “GI50 BXPC-3” value [6] was 0.31 ng/mL (≈ 0.000428 µM), the GI50 [6] was 0.43 nM and the “GI50 MCF-7” value [7] was 0.14 ng/mL (≈ 0.000193 µM). The GI50 [7] was 0.19 nM, the “GI50 SF-268” value [8] was 0.16 ng/mL (≈ 0.000221 µM) and the GI50 [8] was 0.22 nM. The “Activity against minipanel of human cancer cell lines (in words)” value (“Activity against minipanel” for short) [9] was “similarly strong activity” and the “GI50 (order of magnitude over the cell lines)” value [9] was 10^−4 μg/mL.

With CC[C@H](C)[C@@H]([C@@H](CC(=O)N1CCC[C@H]1[C@H](OC)[C@@H](C)C(=O)NCCc1ccc(O)cc1)OC)N(C)C(=O)[C@@H](NC(=O)[C@H](C(C)C)N(C)C)C(C)C [Compound 9, Dov-Val-Dil-Dap-4-hydroxyphenethylamide] the Solubility [1] was less than 1 mg/mL, the EC50 ([2]; Mus musculus, P388, read-out: ED50 P388 (nanomolar value in parentheses)) was 5 nM and the “Activity against P388 (in words)” value [2] was “exceptional activity”. For the same compound, the “ED50 P388” value [2, 11] was 3.6 ng/mL (≈ 0.00501 µM).

With CCC(C)C(C(CC(=O)N1CCCC1C(OC)C(C)C(=O)NCCc1ccc(OP(=O)(O)O)cc1)OC)N(C)C(=O)C(NC(=O)C(C(C)C)N(C)C)C(C)C (stereo not drawn) [Compound 10b, Dov-Val-Dil-Dap-4-(dihydrophosphoryloxy)phenethylamide] the “Stability of the pure substance (in words)” value [10] was “quite unstable”.

With “Dov-Val-Dil-Dap-2-aminoquinoline [Compound 4]” the “Activity against P388 (in words)” value [2] was “exceptional activity”, the “ED50 P388” value [2, 11] was 31 ng/mL and the EC50 [2, 12] was 42.8 nM. The “GI50 NCI-H460” value [3] was 16 ng/mL, the GI50 [3] was 22.1 nM and the “GI50 KM20L2” value [4] was 7.7 ng/mL. The GI50 [4] was 10.6 nM, the “GI50 DU-145” value [5] was 23 ng/mL and the GI50 [5] was 31.8 nM. The “GI50 BXPC-3” value [6] was 29 ng/mL, the GI50 [6] was 40.1 nM and the “GI50 MCF-7” value [7] was 4.6 ng/mL. For the same compound, the GI50 [7] was 6.35 nM, the “GI50 SF-268” value [8] was 29 ng/mL and the GI50 [8] was 40.1 nM. The “Activity against minipanel” value [9] was “similarly strong activity” and the “GI50 (order of magnitude over the cell lines)” value [9] was 10^−2-10^−3 μg/mL.

With Sodium Auristatin TP [Compound 3b] the Solubility ([1]; in distilled water at 23° C.) was greater than 236 mg/mL, the “Activity against P388 (in words)” value [2] was “exceptional activity” and the “ED50 P388” value [2, 11] was less than 1 ng/mL. The EC50 [2, 12] was less than 1.2 nM, the “GI50 NCI-H460” value [3] was 0.88 ng/mL and the GI50 [3] was 1.05 nM. For the same compound, the “GI50 KM20L2” value [4] was 0.61 ng/mL, the GI50 [4] was 0.72 nM and the “GI50 DU-145” value [5] was 0.54 ng/mL. For the same compound, the GI50 [5] was 0.64 nM, the “GI50 BXPC-3” value [6] was 46 ng/mL and the GI50 [6] was 54.6 nM. For the same compound, the “GI50 MCF-7” value [7] was 0.68 ng/mL, the GI50 [7] was 0.81 nM and the “GI50 SF-268” value [8] was 1.25 ng/mL. The GI50 [8] was 1.48 nM, the “Activity against minipanel” value [9] was “similarly strong activity” and the “GI50 (order of magnitude over the cell lines)” value [9] was 10^−2-10^−4 μg/mL.
